# B1: Caseinolytic peptidase P (ClpP) of S. aureus, label-free (His tag excised) (enzyme)
# chain: MNLIPTVIETTNRGERAYDIYSRLLKDRIIMLGSQIDDNVANSIVSQLLFLQAQDSEKDIYLYINSPGGSVTAGFAIYDTIQHIKPDVQTICIGMAASMGSFLLAAGAKGKRFALPNAEVMIHQPLGGAQGQATEIEIAANHILKTREKLNRILSERTGQSIEKIQKDTDRDNFLTAEEAKEYGLIDEVMVPETK
# notes: also called casein hydrolase P; label-free ClpP protein; source: E. coli BL21 (DE3), pET28a-clpP, purified (His-Trap); copies: 14
# Biological target: T1, ClpP (Staphylococcus aureus, UniProt Q2G036)
# T1 construct: pET28a-clpP, purified from E. coli BL21(DE3)
# Assay: ClpP peptidase assay with fluorescent substrate Suc-LY-AMC (positive-control inhibitor)
# Format: biochemical
# Conditions: not given
# 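Throughout, for Relative inhibition rate (%): ClpP peptidase activity measured as fluorescence (ex 360 nm, em 465 nm) from cleavage of Suc-LY-AMC substrate at 100 µM, 30 min at 32°C.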
row,Molecule,ClpP peptidase assay with fluorescent substrate Suc-LY-AMC (positive-control inh)
1,O=c1c(O)c(-c2cc(O)c(O)c(O)c2)oc2cc(O)cc(O)c12 [myricetin],the inhibitory ability of quercetin and the positive-control myricetin on ClpP activity were the closest

# Biological target: T1, ClpP
# Assay: LSPR (OpenSPR) with immobilized ClpP; supported by TSA, CETSA in lysate, and Suc-LY-AMC inhibition (IC50 […])
# Format: binding
# Conditions: not given
row,Molecule,Kd [nM]
1,O=c1c(O)c(-c2ccc(O)c(O)c2)oc2cc(O)cc(O)c12 [quercetin],197

# Tested on: T2, S. aureus USA300 (MRSA)
# T2 construct: USA300
# Assay: microbe, parasite or virus in culture
# Set-up: MIC, growth inhibition of MRSA USA300
# Conditions: Staphylococcus aureus, read-out: MIC (μg/mL)
row,Molecule,MIC [µg/mL]
1,CC(C)=CCc1c(O)ccc(C(=O)/C=C/c2ccc(O)cc2)c1O [isobavachalcone],8
2,C=C(C)[C@H](CC=C(C)C)Cc1c(O)cc(O)c2c1O[C@H](c1ccc(O)cc1O)CC2=O [Nor-kurarinone],2
3,O=c1c(O)c(-c2ccc(O)c(O)c2)oc2cc(O)cc(O)c12 [quercetin],128

# Biological target: T1, ClpP
# Assay: biochemical
# Conditions: read-out: Relative inhibition rate (%)
# Description: This property was exploited to screen the available laboratory library of small molecules for ClpP inhibitors. First, 10 μM ClpP and 64 μg/mL of the small molecule compound were added to a black opaque 96-well plate containing 100 μL of ClpP buffer (100 mM HEPES,100 mM NaCl) and incubated for 1 h at room temperature. Afterward, 100 μM Suc-LeuTyr-AMC (Cat number S1153, Sigma-Aldrich, St. Louis, MO, USA) was added to 96-well plates and incubated for 30 min at 32°C. Finally, the fluorescence values were detected by Infinite M200 (360 nm excitation/465 nm emission). […] Since the fluorescent substrate Suc-LY-AMC can be used to detect the activity of ClpP protein, we screened a library of natural products available in our laboratory.
row,Molecule,inhibition at 64 µg/mL [%]
1,CC(C)=CCc1c(O)ccc(C(=O)/C=C/c2ccc(O)cc2)c1O [isobavachalcone],97.6 ± 0.26
2,C=C(C)[C@H](CC=C(C)C)Cc1c(O)cc(O)c2c1O[C@H](c1ccc(O)cc1O)CC2=O [Nor-kurarinone],83.3 ± 0.02
3,O=c1c(O)c(-c2ccc(O)c(O)c2)oc2cc(O)cc(O)c12 [quercetin],74.3 ± 2.67
4,O=C1O[C@H]2[C@@H]3OC(=O)c4cc(O)c(O)c(O)c4-c4c(O)c(O)c5oc(=O)c6c(c(O)c(O)c7oc(=O)c4c5c76)-c4c(cc(O)c(O)c4O)C(=O)OC[C@H]3OC(O)[C@@H]2OC(=O)c2cc(O)c(O)c(O)c2-c2c1cc(O)c(O)c2O (mixture of isomers) [Punicalagin],28.3 ± 3.67
5,CC(C)c1ccc2c(c1O)CC[C@H]1C3=C(CC[C@]21C)C(=O)OC3 [Triptophenolide],20.8 ± 0.61
6,COc1cc(OC)c(CCC(=O)c2ccc(O)cc2)c(OC)c1 [Loureirin B],29.8 ± 2.24
7,O=C1C[C@@H](c2ccccc2)Oc2cc(O)cc(O)c21 [Pinocembrin],33.7 ± 0.68
8,COc1cc([C@@H]2Oc3c(O)cc([C@H]4Oc5cc(O)cc(O)c5C(=O)[C@@H]4O)cc3[C@H]2CO)ccc1O [Silicristin],9.3 ± 0.83
9,COc1cc(O)c2c(=O)cc(-c3ccccc3)oc2c1 [Tectochrysin],7.1 ± 0.26
10,O=C(O)[C@H]1O[C@@H](Oc2cc(O)c3c(=O)cc(-c4ccc(O)c(O)c4)oc3c2)[C@H](O)[C@@H](O)[C@@H]1O [luteolin-7-glucuronide],47.1 ± 3.25
11,COC(=O)C1=CO[C@@H](O[C@@H]2O[C@H](CO)[C@@H](O)[C@H](O)[C@H]2O)[C@@H]2[C@@H](C)[C@@H](O)C[C@H]12 [Loganin],14.7 ± 3.56
12,C[C@@H]1CC[C@H]2[C@@H](C)C(=O)O[C@@H]3O[C@@]4(C)CC[C@@H]1[C@]32OO4 [Artemisinin],4.9 ± 4.21
13,CC(=O)O[C@H]1C(=O)[C@@]2(C)[C@H]([C@H](OC(=O)c3ccccc3)[C@]3(O)C[C@H](O)C(C)=C1C3(C)C)[C@]1(OC(C)=O)CO[C@@H]1C[C@@H]2O [Baccatin III],7.2 ± 3.26
14,COc1ccc(-c2cc(=O)c3c(O)cc(O)cc3o2)cc1O [Diosmetin],6.1 ± 1.68
15,COc1ccc(-c2oc3c(CC=C(C)C)c(O)cc(O)c3c(=O)c2O[C@@H]2O[C@@H](C)[C@H](O)[C@@H](O)[C@H]2O)cc1 [Baohuoside I],37.1 ± 0.59
16,COC(=O)[C@@]12OC[C@]34[C@H]([C@@H](O)[C@@H]1O)[C@@]1(C)CC(=O)C(O)=C(C)[C@@H]1C[C@H]3OC(=O)[C@H](OC(C)=O)[C@@H]24 [Bruceine B],1.6 ± 2.71
17,COc1cc2ccc(=O)oc2c(O)c1O [Fraxetin],50.3 ± 4.62
18,Cc1c(O)c(C)c2c(c1O)C(=O)C[C@@H](c1ccc(O)cc1)O2 [Farrerol],33.5 ± 0.73
19,C[C@@H]1CC[C@@]2(OC1)O[C@H]1C[C@H]3[C@@H]4CC[C@H]5C[C@@H](O)CC[C@]5(C)[C@H]4CC[C@]3(C)[C@H]1[C@@H]2C [Tigogenin],12.3 ± 4.21
20,O=C(CCCCc1ccc2c(c1)OCO2)N1CCCCC1 [Tetrahydropiperine],24.5 ± 3.67
21,"COc1ccc(-c2cc(=O)c3c(O)cc(OC)cc3o2)cc1 [Apigenin 7,4'-dimethyl ether]",18.4 ± 1.24
22,COc1ccc([C@@H]2CC(=O)c3c(O)cc(O[C@@H]4O[C@H](CO[C@@H]5O[C@@H](C)[C@H](O)[C@@H](O)[C@H]5O)[C@@H](O)[C@H](O)[C@H]4O)cc3O2)cc1 [Didymin],31.2 ± 0.59
23,O=C1C([C@@H]2O[C@H](CO)[C@@H](O)[C@H](O)[C@H]2O)=C(O)/C(=C(O)/C=C/c2ccc(O)cc2)C(=O)C1(O)[C@@H]1O[C@H](CO)[C@@H](O)[C@H](O)[C@H]1O (stereo partly drawn) [Hydroxysafflor yellow A],52.4 ± 4.23
24,O=Cc1ccc(O[C@@H]2O[C@H](CO)[C@@H](O)[C@@H](O)[C@H]2O)cc1 [Helicid],13.9 ± 3.22
25,O=C(/C=C/c1ccc(O)cc1)OC[C@H]1O[C@@H](Oc2c(-c3ccc(O)cc3)oc3cc(O)cc(O)c3c2=O)[C@H](O)[C@@H](O)[C@@H]1O [Tiliroside],3.6 ± 0.17
26,CC1(C)CCC2(CO)C(=C3C=CC4C5(C)CCC(OC6OC(COC7OC(CO)C(O)C(O)C7O)C(OC7OC(CO)C(O)C(O)C7O)C(O)C6O)CC5C(C)(CO)CC4(C)C3(C)CC2O)C1 (stereo not drawn) [Clinodiside A],16 ± 2.78
27,COc1ccc(-c2cc(=O)c3c(O)c(OC)c(O[C@@H]4O[C@H](CO[C@@H]5O[C@@H](C)[C@H](O)[C@@H](O)[C@H]5O)[C@@H](O)[C@H](O)[C@H]4O)cc3o2)cc1 [Pectolinarin],28.3 ± 1.37

# Biological target: T3, 6×His-ClpX protein of S. aureus (S. aureus, UniProt Q2FXQ7 1-420)
# T3 construct: source: E. coli, purified
# Assay: pull-down; 6×His-ClpX and label-free ClpP mixed with 2 mM ATPγS (with DMSO, quercetin or ADEP4), overnight at 4°C; passed through Ni-NTA, washed with binding buffer (40 mM Tris, 200 mM NaCl, pH 8.5), eluted with 400 mM imidazole; SDS-PAGE
# Conditions: both partners purified
# T3 sequence (Q2FXQ7 whole entry): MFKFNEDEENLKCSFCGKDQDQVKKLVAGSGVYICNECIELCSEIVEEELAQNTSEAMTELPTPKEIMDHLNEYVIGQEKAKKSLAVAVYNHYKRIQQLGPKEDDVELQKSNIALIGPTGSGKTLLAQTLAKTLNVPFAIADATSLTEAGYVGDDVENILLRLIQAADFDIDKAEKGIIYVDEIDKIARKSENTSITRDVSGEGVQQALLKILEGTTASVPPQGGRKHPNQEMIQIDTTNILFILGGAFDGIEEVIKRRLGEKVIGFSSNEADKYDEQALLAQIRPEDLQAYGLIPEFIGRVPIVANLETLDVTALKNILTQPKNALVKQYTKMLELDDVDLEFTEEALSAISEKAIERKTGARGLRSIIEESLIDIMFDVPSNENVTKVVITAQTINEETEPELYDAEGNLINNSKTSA
row,Molecule,binding result
1,B1,binds

# From PMC9045277, “Quercetin Reduces the Virulence of S. aureus by Targeting ClpP to Protect Mice from MRSA-Induced Lethal Pneumonia” (Microbiology Spectrum, 2022)
